{"source": "patent US20120270928A1", "about": "“MICRORNA COMPOUNDS AND METHODS FOR MODULATING MIR-21 ACTIVITY” (REGULUS THERAPEUTICS INC., priority 2011, published 2012)", "key": {"[1]": {"tested_on": "IR/Nx model mice", "experiment": "Survival rate of IR/Nx model mice two days after nephrectomy", "assay_type": "in vivo", "protocol": "The survival rate of IR/Nx model mice two days after nephrectomy was determined across six different experiments to determine if administration of anti-miR-21 compounds increases survival. In the first three experiments, anti-miR-21 compound was administered on days 5, 6, and 7 after ischemia reperfusion injury, and nephrectomy occurred on day 10 or day 11. In the second three experiments, anti-miR-21 compound was administered on days 2, 3, and 4, and nephrecromy occurred on day 7."}, "[2]": {"experiment": "In vivo stability of compound in kidney tissue after administration to mice", "details": "7 days post-injection"}, "[3]": {"experiment": "Ex vivo liver homogenate stability assay (HPLC-TOF MS)", "details": "5 μM oligonucleotide in liver homogenate (50 mg tissue per ml), 24 hours at 37° C."}, "[4]": {"tested_on": "model of ischemia reperfusion injury (IRI)", "experiment": "Unilateral IRI model: collagen area fraction of kidney tissue", "assay_type": "in vivo, mouse", "details": "for reduction in collagen area fraction (significance): IRI; for Collagen Area Fraction (#) Mean: group mean; for Collagen Area Fraction (#): 20 mg/kg", "protocol": "A model of ischemia reperfusion injury (IRI) is created in the mouse through unilateral or bilateral clamping of kidney arteries, which leads to tubule damage, inflammation, and fibrosis. Kidney dysfunction can occur either early (<5 days) or late (>7 days) in this model, with the early time points useful to test candidate agents for the treatment of acute kidney injury, and the later time points useful to model chronic fibrosis.\nAnti-miR-21 compounds were tested in the unilateral IRI model. Unilateral IRI was induced for a period of 30 minutes. Treatment groups were as follows: sham IRI procedure; IRI with PBS administered subcutaneously; IRI with anti-miR-21 compound 25070 administered intraperitoneally at a dose of 20 mg/kg; the 2′-fluoro/2′-MOE modified anti-miR-21 25919 administered intraperitoneally at a dose of 20 mg/kg; and a 2′-fluoro/2′ modified mismatch anti-miR-21 (having three mismatches to the sequence of miR-21) 25319 administered intraperitoneally at a dose of 20 mg/kg. PBS or anti-miR compound was administered on days 5, 6, and 7 following IRI, and animals were sacrificed 14 days after IRI. As anti-miR compound is administered 5 days following the injury to the kidney, or later, when fibrosis has already occurred to some extent, this treatment regimen is considered a therapeutic regimen, rather than a prophylactic regimen.\nKidney tissue was collected for analysis of collagen 1A1 and collagen 3A1 expression (shown in Table 0), and collagen area fraction (shown in Table P).\nA similar study was performed with the same treatment groups and additional days of treatment. In this study, treatments were administered intraperitoneally at days 5, 6, 7, 14, and 21 following the IRI procedure Animals were sacrificed on Day 27, and kidney tissue was collected for analysis of collagen 1A1 and collagen 3A1 expression, as well as collagen area fraction."}, "[5]": {"tested_on": "UUO model of kidney fibrosis", "experiment": "Unilateral ureteral obstruction (UUO) model of kidney fibrosis: kidney collagen 1A1 and collagen 3A1 expression by real-time PCR", "assay_type": "in vivo, mice", "details": "for Collagen 3A1 (Normalized Expression) Mean / Collagen 1A1 (Normalized Expression) Mean: group mean; for Collagen 1A1 (Normalized Expression) / Collagen 3A1 (Normalized Expression): individual animals, 20 mg/kg", "how_it_was_run": "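Fibrosis induced by unilateral ureter ligation, groups of 8; anti-miR-21 compounds dosed at 20 mg/kg around surgery (days −3, −1, +5 or −5, −3, +3; repeat study subcutaneous at −5, −2, +3). Kidneys taken on day 10 or 11; Col1A1 and Col3A1 mRNA measured by real-time PCR, normalized to GAPDH and, in one study, also to sham.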"}, "[6]": {"details": "Table P, unilateral IRI, 20 mg/kg intraperitoneally on days 5, 6, 7, day 14, IRI-PBS mean 15.1"}, "[7]": {"details": "Table P, individual animals, unilateral IRI, 20 mg/kg intraperitoneally on days 5, 6, 7, day 14"}, "[8]": {"details": "unilateral IRI mouse, 20 mg/kg intraperitoneally on days 5, 6, 7, 14, and 21, sacrificed Day 27"}, "[9]": {"details": "individual animals (not same as PCR), unilateral IRI mouse, 20 mg/kg intraperitoneally on days 5, 6, 7, 14, and 21, sacrificed Day 27"}, "[10]": {"details": "Table K, UUO mice, 20 mg/kg at days -3, -1, +5, kidney at day 11, UUO-PBS mean 87.2"}, "[11]": {"details": "Table K, UUO mice, 20 mg/kg at days -3, -1, +5, kidney at day 11, UUO-PBS mean 114.9"}, "[12]": {"details": "Table K, UUO mice, 20 mg/kg at days -3, -1, +5 (prophylactic), kidney at day 11, real-time PCR normalized to GAPDH then sham"}, "[13]": {"details": "Table L, repeat UUO study, 20 mg/kg SC, prophylactic"}, "[14]": {"details": "Table M, UUO, 25070 20 mg/kg s.c. 5 and 2 days prior to and 3 days after UUO, irbesartan PO daily days 0-7, sacrifice Day 10"}, "[15]": {"details": "meta-analysis of UUO studies, 20 mg/kg at days -3, -1, +5, kidney at day 11"}, "[16]": {"details": "repeated UUO study, subcutaneously 20 mg/kg, prophylactic"}}, "note": "“And” between values parts separate entries of the source, which are not always exact repeats. Equal entries are not always repeated.", "data": [{"sequence": "AECSATCSAGTCSTGAUSAAGCSTAE (ACATCAGTCTGATAAGCTA; modified nucleosides, phosphorothioate linkages, chemistry not fully specified) [Compound 25070]", "values": [{"measurement": "Survival rate 2 days after Nx, Summary (day 10/11 Nx)", "setting": "[1]; Studies 1-3 pooled, Nx day 10/11, dosing days 5, 6, and 7", "result": "80% (29/36)"}, {"measurement": "Survival rate 2 days after Nx, Summary (day 7 Nx)", "setting": "[1]; Studies 4-6 pooled, Nx day 7, dosing days 2, 3, and 4", "result": "69% (25/36)"}, {"measurement": "Survival rate 2 days after Nx", "setting": "[1]; Study 1, Nx Day 10, 30 mg/kg on days 5, 6, and 7 after IR", "result": 91.7, "unit": "%"}, {"measurement": "Survival rate 2 days after Nx", "setting": "[1]; Study 2, Nx Day 11, 30 mg/kg on days 5, 6, and 7 after IR", "result": 83.3, "unit": "%"}, {"measurement": "Survival rate 2 days after Nx", "setting": "[1]; Study 3, Nx Day 10, 20 mg/kg on days 5, 6, and 7 after IR", "result": 66.6, "unit": "%"}, {"measurement": "Survival rate 2 days after Nx", "setting": "[1]; Study 4, Nx Day 7, 20 mg/kg on days 2, 3, and 4 after IR", "result": 75, "unit": "%"}, {"measurement": "Survival rate 2 days after Nx", "setting": "[1]; Study 5, Nx Day 7, 20 mg/kg on days 2, 3, and 4 after IR", "result": 66.7, "unit": "%"}, {"measurement": "Survival rate 2 days after Nx", "setting": "[1]; Study 6, Nx Day 7, 20 mg/kg on days 2, 3, and 4 after IR", "result": 66.7, "unit": "%"}, {"measurement": "survival rate two days after nephrectomy", "setting": "[1]; first three experiments, dosing days 5, 6, 7, nephrectomy on day 10 or day 11", "result": 80, "unit": "%"}, {"measurement": "survival rate two days after nephrectomy", "setting": "[1]; second three experiments, dosing days 2, 3, 4, nephrectomy on day 7", "result": 69, "unit": "%"}, {"measurement": "compound present in kidney tissue lacking the 3′-terminal nucleoside", "setting": "[2]", "result": "about 50%"}, {"measurement": "compound lacking the 3′-terminal nucleoside", "setting": "[3]", "result": "about 27%"}, {"measurement": "compound present as the full-length compound", "setting": "[3]", "result": "about 58%"}, {"measurement": "reduction in collagen area fraction (significance)", "setting": "[4]; 20 mg/kg intraperitoneally on days 5, 6, and 7, sacrifice 14 days after IRI", "result": "statistically significant reduction"}, {"measurement": "reduction in collagen area fraction (significance)", "setting": "[4]; intraperitoneally at days 5, 6, 7, 14, and 21, sacrifice Day 27", "result": "statistically significant reduction"}, {"measurement": "Collagen Area Fraction (#) Mean", "setting": "[4]; [6]", "result": "9.7 #"}, {"measurement": "Collagen Area Fraction (#)", "setting": "[4]; [7]", "result": "10.266 # and 11.772 # and 10.267 # and 8.404 # and 7.862 # and 6.975 # and 8.381 # and 13.773 #"}, {"measurement": "Collagen Area Fraction (#) Mean", "setting": "[4]; [8]", "result": 10.1}, {"measurement": "Collagen Area Fraction (#)", "setting": "[4]; [9]", "result": "7.354 and 9.241 and 9.589 and 11.573 and 8.182 and 10.695 and 13.978 and 10.12"}, {"measurement": "Collagen 3A1 (Normalized Expression) Mean", "setting": "[5]; [10]", "result": 55.5}, {"measurement": "Collagen 1A1 (Normalized Expression) Mean", "setting": "[5]; [11]", "result": 81.0}, {"measurement": "Collagen 1A1 (Normalized Expression)", "setting": "[5]; [12]", "result": "67.7 and 97.7 and 88.8 and 95.9 and 71.4 and 44.5 and 73.0 and 109.4"}, {"measurement": "Collagen 3A1 (Normalized Expression)", "setting": "[5]; [12]", "result": "36.4 and 75.6 and 47.3 and 55.5 and 63.3 and 28.5 and 64.2 and 72.9"}, {"measurement": "Collagen 3A1 (Normalized Expression) Mean", "setting": "[5]; Table L, repeat UUO study, 20 mg/kg SC, prophylactic, UUO-PBS mean 58.8", "result": 42.4}, {"measurement": "Collagen 1A1 (Normalized Expression) Mean", "setting": "[5]; Table L, repeat UUO study, 20 mg/kg SC, prophylactic, UUO-PBS mean 74.3", "result": 30.2}, {"measurement": "Collagen 1A1 (Normalized Expression)", "setting": "[5]; [13]", "result": "13.9 and 9.2 and 32.3 and 57.2 and 47.6 and 26.1 and 35.0 and 20.4"}, {"measurement": "Collagen 3A1 (Normalized Expression)", "setting": "[5]; [13]", "result": "34.9 and 47.4 and 25.3 and 38.0 and 47.9 and 54.3 and 56.1 and 35.2"}, {"measurement": "Collagen 3A1 (Normalized Expression) Mean", "setting": "[5]; Table M, UUO, 25070 20 mg/kg s.c., irbesartan PO daily days 0-7, Day 10, UUO-PBS 93.2, Tween/MC vehicle 132.4", "result": 53.7}, {"measurement": "Collagen 1A1 (Normalized Expression) Mean", "setting": "[5]; Table M, UUO, 25070 20 mg/kg s.c., irbesartan PO daily days 0-7, Day 10, UUO-PBS 129.6, Tween/MC vehicle 150.2", "result": 64.2}, {"measurement": "Collagen 1A1 (Normalized Expression)", "setting": "[5]; [14]", "result": "87.5 and 67.4 and 22.2 and 61.9 and 42.0 and 69.2 and 68.4 and 95.2"}, {"measurement": "Collagen 3A1 (Normalized Expression)", "setting": "[5]; [14]", "result": "38.6 and 56.9 and 77.2 and 50.7 and 76.4 and 49.7 and 44.3 and 35.9"}, {"measurement": "reduction in Col3a1 expression (significance)", "setting": "[5]; UUO, comparison with irbesartan, sacrifice Day 10", "result": "statistically significant reductions"}, {"measurement": "reduction in Col1A1 expression relative to saline-treated animals (significance)", "setting": "[5]; UUO, comparison with irbesartan, sacrifice Day 10, p<0.05 by one-way ANOVA", "result": "statistically significant reduction"}, {"measurement": "reduction in collagen expression (in words)", "setting": "[5]; meta-analysis of UUO studies, 20 mg/kg at days -3, -1, +5", "result": "greatest potency"}, {"measurement": "inhibition of collagen 1A1", "setting": "[5]; [15]", "result": 40, "unit": "%"}, {"measurement": "inhibition of collagen 3A1", "setting": "[5]; [15]", "result": 30, "unit": "%"}, {"measurement": "collagen 1A1 expression (in words)", "setting": "[5]; [16]", "result": "potent inhibitor of collagen 1A1 and collagen 3A1 expression"}, {"measurement": "collagen 3A1 expression (in words)", "setting": "[5]; [16]", "result": "potent inhibitor of collagen 1A1 and collagen 3A1 expression"}]}, {"sequence": "UECEAFAFCFAFUFCFAFGFUFCEUEGEAFUFAFAFGFCFUEAE (antisense TCAACATCAGTCTGATAAGCTA; listed as DNA, chemistry not fully specified) [Compound 25919, reference compound]", "values": [{"measurement": "Collagen Area Fraction (#) Mean", "setting": "[4]; [6]", "result": "8.2 #"}, {"measurement": "Collagen Area Fraction (#)", "setting": "[4]; [7]", "result": "7.093 # and 8.254 # and 8.095 # and 8.559 # and 8.681 # and 6.31 # and 8.416 # and 9.905 #"}, {"measurement": "Collagen Area Fraction (#) Mean", "setting": "[4]; [8]", "result": 12.8}, {"measurement": "Collagen Area Fraction (#)", "setting": "[4]; [9]", "result": "11.882 and 9.755 and 9.506 and 12.654 and 20.319 and 11.551 and 12.224 and 14.468"}, {"measurement": "Collagen 3A1 (Normalized Expression) Mean", "setting": "[5]; [10]", "result": 56.9}, {"measurement": "Collagen 1A1 (Normalized Expression) Mean", "setting": "[5]; [11]", "result": 86.6}, {"measurement": "Collagen 1A1 (Normalized Expression)", "setting": "[5]; [12]", "result": "150.2 and 54.2 and 84.6 and 67.7 and 78.7 and 62.2 and 89.2 and 106.2"}, {"measurement": "Collagen 3A1 (Normalized Expression)", "setting": "[5]; [12]", "result": "67.1 and 33.9 and 87.6 and 47.3 and 67.7 and 46.7 and 47.0 and 57.8"}]}]}
